Paper PMC10038264, “A new family of glutamate-gated chloride channels in parasitic sea louse Caligus rogercresseyi: A subunit refractory to activation by ivermectin is dominant in heteromeric assemblies” (PLOS Pathogens, 2023)
Where “and” joins values, the source holds several entries; their conditions need not be identical. Equal values may be shown once. Entries after “also recorded” stand apart in the source; their conditions may differ. Read-outs that look alike come from different tables or passages of the source.

Experiments:
Format in all cases: cell-based, Caligus rogercresseyi
CrGluCl-C = details: for maximal current: CrGluCl-C, saturating concentration of agonist; for nH (ivermectin) / EC50: CrGluCl-C alone; for EC50: irreversible activation
Procedure: (§1) Adult female Xenopus laevis frogs were anaesthetized by immersion in a1g/L solution tricaine (Ethyl 3-aminobenzoate methanesulfonate, Sigma) buffered to pH 7 with NaHCO3. Surgery was performed 30–40 min later, once the frog was completely anaesthetized judging by loss of reflexes. Ovarian lobes were removed through 1 cm abdominal incision and then kept at 16°C in Barth’s modified solution containing (in mM): 88 NaCl, 1 KCl, 0.4 CaCl2, 0.3 Ca (NO3)2, 0.8 MgSO4, 2.4 NaHCO3, 5 Hepes, 2.5 sodium pyruvate, 100 μg/ml gentamicin sulfate, 100 U/ml penicillin, 100 μg/ml streptomycin, 250 μg/ml amphotericin B, 0.22μm filtered and adjusted to pH 7.5 with Tris-Base. Osmolarity was brought to 220 mOsm with saccharose. The oocytes were manually defolliculated on the same day of extraction and the following day 20 ng cRNA in nuclease-free water was injected into stage V-VI oocytes using a FemtoJet microinjector (Eppendorf). Finally, the injected oocytes were stored in 96 well plates containing Barth’s modified solution and kept at 16°C until experiment day.
(§2) Current measurements at controlled membrane potentials (voltage-clamp experiments) were performed using two intracellular microelectrodes in defolliculated Xenopus oocytes previously microinjected with 20 ng of cRNA. Voltage-clamp recording was performed at room temperature using a TURBO TEC-10CX amplifier (npi electronic GmbH, Tamm, Germany) and PClamp 10.6 software (Axon Instruments, USA), 1 to 4 days after oocyte injection. The oocytes were recorded in a chamber (Model RC-1Z, Warner Instrumenst, USA) under continuous superfusion. […] Reference was an Ag-AgCl electrode connected to the bath via a 3 M KCl in 3% agar bridge. Currents were recorded continuously during the experiments without interruptions for solution changes. Oocytes were held at -30 mV and a voltage protocol consisting of a voltage drop to -100 mV for 25ms followed by a 360 ms ramp from -100 mV to 60mV applied with a period of 565 ms was continuously given. The signal filtered at 1 kHz was acquired with a Digidata 1440A Analog-to-Digital Converter and analyzed with Axon pClamp 10.6 software. The solution that bathed the oocytes during the electrophysiological recordings had the following composition (mM): 115 NaCl, 2 KCl, 1.8 CaCl2, 1 MgCl2, 10 HEPES pH 7.5 obtained with NaOH. For the low chloride solution, all the NaCl was replaced with the gluconate salt of Na. This decreases chloride concentration from 122.6 to 7.6 mM while increasing that of gluconate from 0 to 115 mM. The stock solutions of the drugs in dimethyl sulfoxide (DMSO) were: 10 mM emamectin, 10 mM ivermectin, 100 mM picrotoxin. These were diluted in bath solution to obtain final concentrations.
(§3) The currents were normalized according to the extrapolated maximum current delivered by the Hill adjustment. In this way, the concentration that generates 50% of the maximum effect (EC50) and the Hill coefficient (nH) for each situation were obtained.

CrGluCl-D = CrGluCl-D spontaneous current
Procedure: as §1, §2, §3

[1] = system: coexpressed CrGluCl-A:CrGluCl-B; assay: Voltage-clamp of oocytes coexpressing CrGluCl-A and CrGluCl-B
Procedure: as §1, §2, §3

[2] = system: CrGluCl-B-Q279E-Y361F-Q327T triple mutant; assay: Voltage-clamp of oocytes expressing CrGluCl-B triple mutant
Description: To identify putative GluCl subunits, we queried the NCBI Transcriptome Shotgun Assembly Sequence (TSA) Database for “glutamate-gated chloride channel Caligus”. The obtained sequences were translated and BLASTed (tBLASTn) against the C. rogercresseyi genome (WGS, BioProject ID 280098, NCBI) and against transcripts of L. salmonis database (https://licebase.org/). Primers for each of the putative new subunit found were designed to span the full length of the open reading frame (ORF) for each of them (B-E) (S1 Table, and arrows in Fig 1). Complete cDNAs were generated by RT-PCR from adult C. rogercresseyi samples from which putative full-length peptide sequences of CrGluCl-B, CrGluCl-C, CrGluCl-D and CrGluCl-E were obtained. Each PCR product was cloned in pGEM-T easy vector and sequenced. To express the clones in Xenopus laevis oocytes, ORF of CrGluCl-B, -C, -D and -E were cloned in pGH19 vector from pGEM-Teasy/CrGluCl using the following restriction enzymes: BamHI and XbaI (-B) and EcoRI (-D and -E). CrGluCl-C was cloned first in pCR3.1 vector with NotI and then into pGH19 with SpeI/XbaI. The CrGluCl/pGH19 plasmid were linearized with NheI (-A and -B) or XhoI (-C, -D, -E) and used as template for the synthesis of capped cRNA (complementary RNA) using the mMessage Machine T7 kit. Mutations were made by site-directed mutagenesis using the QuickChange method and confirmed by sequencing. […]
(§4) Current measurements at controlled membrane potentials (voltage-clamp experiments) were performed using two intracellular microelectrodes in defolliculated Xenopus oocytes previously microinjected with 20 ng of cRNA. […] The oocytes were recorded in a chamber (Model RC-1Z, Warner Instrumenst, USA) under continuous superfusion. […] Currents were recorded continuously during the experiments without interruptions for solution changes. […] The signal filtered at 1 kHz was acquired with a Digidata 1440A Analog-to-Digital Converter and analyzed with Axon pClamp 10.6 software. […]

[3] = system: coexpressed CrGluCl-D:CrGluCl-B; assay: Voltage-clamp of oocytes coexpressing CrGluCl-D and CrGluCl-B; details: B:D ratio 1:1
Procedure: as §1, with “The oocytes were manually defolliculated on the same day of extraction and the following day 20 ng cRNA in nuclease-free water was injected into stage V-VI oocytes using a FemtoJet microinjector (Eppendorf). Finally, the injected oocytes were stored in 96 well plates containing Barth’s modified solution and kept at 16°C until experiment day.” left out
as §4

CrGluCl-B = assay: Two-electrode voltage-clamp of Xenopus oocytes expressing CrGluCl-B; details: for activation by ivermectin (EC50 Ivermectin column): CrGluCl-B WT alone, 1-3 μM ivermectin
Procedure: as §1, §2, §3

## N[C@@H](CCC(=O)O)C(=O)O [glutamate, L-glutamate]
CrGluCl-C
  maximal current: 3.5 ± 1.7 μA
CrGluCl-D
  direct activating effect: lack a direct activating effect
[1]; A:B ratio 1:1
  EC50: 82000 ± 35000 nM
[1]; A:B ratio 1:4
  EC50: 72000 ± 47000 nM
[1]; A:B ratio 4:1
  EC50: 89000 ± 47000 nM
[2]; read-out: EC50 glutamate
  EC50: 103000 ± 133000 nM

## ivermectin
[3]
  nH (ivermectin): 2.6 ± 1.1
[3]; read-out: EC50 ivermectin (Iver response to activation)
  EC50: 278 ± 53 nM
CrGluCl-C
  nH (ivermectin): 2.1
  maximal current: 3.7 ± 1.3 μA
CrGluCl-C; listed as Ivermectin
  EC50: 31 ± 14 nM
  nH (ivermectin): 2.1 ± 0.67
CrGluCl-C; read-out: EC50 Ivermectin
  EC50: 31.1 ± 14.4 nM
CrGluCl-D
  direct activating effect: lack a direct activating effect
[1]; A:B ratio 1:1
  Iver response to activation: Insensitive
[1]; A:B ratio 1:4
  Iver response to activation: Insensitive
[1]; A:B ratio 4:1
  Iver response to activation: Insensitive
CrGluCl-B; 1 mM glutamate after 1 μM ivermectin, CrGluCl-B
  current evoked by glutamate after ivermectin treatment: 1.70 ± 1.69 μA
CrGluCl-B
  activation by ivermectin (EC50 Ivermectin column): without effect
CrGluCl-B; listed as Ivermectin
  activation by ivermectin (EC50 Ivermectin column): no effect; also recorded: Insensitive
CrGluCl-B; CrGluCl-B, 3 mM glutamate
  nH (ivermectin inhibition): -2.2 ± 0.5 and -2.2
CrGluCl-B; CrGluCl-B, as restated in discussion, read-out: IC50 ivermectin inhibition of glutamate-activated current
  IC50: 340 nM
CrGluCl-B; CrGluCl-B, continuous 3 mM glutamate, read-out: IC50 ivermectin antagonism of glutamate-elicited current
  IC50: 342 ± 114 nM
[2]
  nH (ivermectin): 1.6 ± 0.22
[2]; read-out: EC50 ivermectin
  EC50: 94 ± 54 nM
